Among the data in patent US5294619A, “Arylpiperidine derivatives” (Pfizer Inc., priority 1992, dated 1994) are IC50 values, retold here.

The assay addresses T1, dopamine-2 receptor (Rattus norvegicus, UniProt P61169).
T1 construct: The caudate and mesolimbic areas were then homogenized; from tissue; host or cells: rat brain, caudate and mesolimbic areas (washed membrane homogenate)
Nature of the assay: 3[H]-N-propylnorapomorphine binding assay (rat caudate and mesolimbic brain tissue). The note with it: inhibition of 3[H]-N-propylnorapomorphine binding, 0.32 nM radioligand, pH 7.5, 25° C., 30 minutes. Here is the method:
The anti-psychotic activity of the compounds of the present invention as neuroleptic agents for the control of various psychotic disorders is determined primarily by a study of their ability to suppress ^3 [H]-N-propylnorapormorphine (dopamine-2 receptor) uptake in the brain of rats (in vitro). This study is carried out in a standard ^3 [H]-N-propylnorapomorphine binding assay test, where the amount of radioactivity is determined by liquid scintillation counting. In this way, the compounds can be rated in terms of their ability to reduce the amount of radioactivity caused by the aforesaid dopamine-2-receptor.
The N-substituted arylpiperidine compounds of Examples 1-18, respectively, were tested for anti-psychotic activity in rats, using the standard ^3 [H]-N-propylnorapomorphine binding assay test, according to the general procedure described by K. Fuxe et al., as reported in the European Journal of Pharmacology, Vol. 100, p. 127 (1984).
In this procedure, the brain was quickly removed from a decapitated rat and the caudate and mesolimbic areas were subsequently dissected therefrom to afford an average of ca. 150-180 mg. of material per rat. The caudate and mesolimbic areas were then homogenized on admixture with 40 volumes of ice-cold 15 mM Tris (i.e., tromethamine which is 2-amino-2-hydroxymethyl-1,3-propanediol) hydrochloride buffer having a pH of 7.5, which also contained 1.0 mM ethylenediaminetetraacetic acid (EDTA) and 0.01% ascorbic acid. The homogenate was next centrifuged at 35,000×G for a period of ten minutes. The supernatant liquid was then decanted, and the resulting pellet subsequently resuspended in 40 volumes of fresh, ice-cold Tris-EDTA buffer and homogenized, followed by incubation 37° C. for a period of ten minutes. The resulting homogenate was next re-centrifuged at 35,000×G for another ten-minute period, followed by decantation of the supernatant liquid. The pellet obtained in this manner was then resuspended again in the Tris-EDTA buffer, followed by a repeat of the centrifugation and decantation steps, with the final pellet being resuspended once more in 15 mM Tris-EDTA buffer at a concentration level of 11.25 mg./ml. This completed the production of the tissue preparation phase of the overall procedure.
. The final reaction mixture was next vortexed and incubated at 25° C. for a period of 30 minutes (using a 25° C. water bath for these purposes). […] Upon completion of the reaction step, the incubation period was terminated by subjecting the tubes to rapid filtration under vacuum through fiber filters, followed by two rinses with 5 ml. of ice-cold 15 mM Tris-EDTA buffer for each tube. The filters thus obtained were next soaked in 10 ml. of Aquasol 2 (a registered trademark name of New England Nuclear Corporation of Boston, Massachusetts for a liquid scintillation counter material), vortexed and then allowed to stand overnight (ca. 18 hours) at ambient temperatures in order to extract radioactivity. The amount of radioactivity was determined by liquid scintillation counting, using a Beta counter at 53% counting efficiency. The IC50 values were thereafter calculated by using standard statistical methods. On this basis, the ability of each test compound to reduce the amount of radioactivity caused by ^3 [H]-N-propylnorapomorphine is given as an IC50 value, expressed in terms of nM units.
In this way, the N-substituted arylpiperidine compounds of formula I that were reported as final products in Examples 1-18, respectively, were all assayed and found to be capable of inhibiting ^3 [H]-N-propylnorapomorphine binding at its dopamine-2 receptor site at the previously-indicated dose level tested. The results obtained in this manner are shown below in the following table, where the binding assay for each compound is reported in terms of the previously-discussed IC50 value: […]

T1 sequence (P61169 whole entry): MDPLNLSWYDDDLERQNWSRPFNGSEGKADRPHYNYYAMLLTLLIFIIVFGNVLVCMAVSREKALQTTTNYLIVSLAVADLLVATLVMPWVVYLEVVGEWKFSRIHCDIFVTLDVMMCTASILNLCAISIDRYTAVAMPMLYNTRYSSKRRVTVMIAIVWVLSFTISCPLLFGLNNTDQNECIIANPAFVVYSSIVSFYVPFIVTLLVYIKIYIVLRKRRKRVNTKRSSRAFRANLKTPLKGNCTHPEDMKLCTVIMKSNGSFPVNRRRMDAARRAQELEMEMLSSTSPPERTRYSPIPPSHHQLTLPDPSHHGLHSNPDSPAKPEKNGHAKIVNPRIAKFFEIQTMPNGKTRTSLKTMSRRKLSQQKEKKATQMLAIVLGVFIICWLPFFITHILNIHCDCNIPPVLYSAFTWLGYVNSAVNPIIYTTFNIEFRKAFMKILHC

One may read the IC50 as the midpoint of a concentration-inhibition curve. Read a high IC50 as weaker potency in that assay. `COc1ccccc1C1CCN(CCc2ccc3c(c2)CC(=O)N3)CC1` [Example 16, 5-{2-[4-(2-methoxyphenyl)-1-piperidinyl]ethyl}oxindole] returned an IC50 of 52.2 nM.

Molecule `FC(F)(F)c1cccc(C2CCN(CCOc3ccccc3)CC2)c1` [Example 10, 1-{2-[4-(3-trifluoromethylphenyl)-1-piperidinyl]ethyloxy}benzene] showed an IC50 of 210 nM.

On to `COc1ccccc1C1CCN(CCc2ccc(-c3csc(N)n3)cc2)CC1` [Example 11, 4-{{4-{2-[4-(2-methoxyphenyl)-1-piperidinyl]ethyl}-phenyl}}-thiazole-2-amine], for which the IC50 came to 36.3 nM.

In turn, `O=C1Cc2cc(CCN3CCCC(c4cccc5ccccc45)C3)ccc2N1` (stereo not drawn) [Example 5, 5-{2-[3-(1-naphthyl)-1-piperidinyl]ethyl}oxindole] yielded an IC50 of 169 nM.

On to `Oc1ccc(CCN2CCC(c3ccccc3)CC2)cc1` [Example 8, 4-[2-(4-phenyl-1-piperidinyl)ethyl]phenol], for which the IC50 came out at 362 nM.

`COc1ccccc1C1CCCN(CCCCc2ccc(-c3csc(N)n3)cc2)C1` (stereo not drawn) [Example 13, 4-{{4-{4-[3-(2-methoxyphenyl)-1-piperidinyl]n-butyl}-phenyl}}thiazole-2amine] yielded an IC50 of 247 nM.

Take `CC12CCC(C(=O)N(CCCCN3CCC(c4cccc5ccccc45)CC3)C1=O)C2(C)C` (stereo not drawn) [Example 6, 3-{4-[4-(1-naphthyl)-1-piperidinyl]-n-butyl}-1,8,8-trimethyl-3-azabicyclo[3.2.1]octane-2,4-dione]: the IC50 was 169 nM.

The molecule `COc1ccccc1C1CCCN(CCc2ccc(-c3csc(N)n3)cc2)C1` (stereo not drawn) [Example 12, 4-{{4-{2-[3-(2-methoxyphenyl)-1-piperidinyl]ethyl}phenyl}}-thiazole-2-amine] came in with an IC50 of 150 nM.

The molecule `O=C1Cc2cc(CCN3CCC(c4cccc5ccccc45)CC3)ccc2N1` [Example 4, 5-{2-[4-(1-naphthyl)-1-piperidinyl]ethyl}-oxindole] showed an IC50 of 184 nM.

`COc1ccccc1C1CCCN(CCCCN2C(=O)CC3(CCCC3)CC2=O)C1` (stereo not drawn) [Example 15, 8-{4-[3-(2-methoxyphenyl)-1-piperidinyl]-n-butyl}-8-azaspiro[4.5]decane-7,9-dione]: the IC50 turned out to be 531 nM.

Molecule `O=C1CC2(CCCC2)CC(=O)N1CCCCN1CCC(c2cccc3ccccc23)CC1` [Example 3, 8-{4-[4-(1-naphthyl)-1-piperidinyl]-butyl}-8-azaspiro[4.5]decane-7,9-dione] came in with an IC50 of 239 nM.

On to `Cc1nc2ccccn2c(=O)c1CCN1CCC(c2cccc3ccccc23)CC1` [Example 1, 3-{2-[4-(1-naphthyl)-piperidinyl]ethyl}-2-methyl-4H-pyrido[1,2-a]-pyrimidine-4-one], for which the IC50 was determined as 114 nM.

Take `Oc1ccc(CCN2CCC(c3cccc(C(F)(F)F)c3)CC2)cc1` [Example 9, 4-{2-[4-(3-trifluoromethylphenyl)-piperidinyl]ethyl}phenol]: the IC50 came to 601 nM.

Regarding `Nc1nc(-c2ccc(CCN3CCC(c4cccc5ccccc45)CC3)cc2)cs1` [Example 2, 4-{{4-{2-[4-(1-naphthyl)piperidinyl]ethyl}phenyl}}thiazole-2-amine], the IC50 was 196 nM.

With `COc1ccccc1C1CCN(CCCCN2C(=O)C3CCC(C)(C2=O)C3(C)C)CC1` (stereo not drawn) [Example 17], the IC50 was 51.5 nM.

In turn, `COc1ccccc1C1CCN(CCCCc2ccc(-c3csc(N)n3)cc2)CC1` [Example 14, 4-{{4-{4-[4-(2-methoxyphenyl)-1-piperidinyl]-n-butyl}-phenyl}}thiazole-2-amine] came in with an IC50 of 51.6 nM.

In turn, `CC12CCC(C(=O)N(CCCCN3CCCC(c4cccc5ccccc45)C3)C1=O)C2(C)C` (stereo not drawn) [Example 7] yielded an IC50 of 1110 nM.

`COc1ccccc1C1CCCN(CCCCN2C(=O)C3CCC(C)(C2=O)C3(C)C)C1` (stereo not drawn) [Example 18, 3-{4-[3-(2-methoxyphenyl)-1-piperidinyl]-n-butyl]-1,8,8-trimethyl-3-azabicyclo[3.2.1]octane-2,4-dione]: the IC50 was found to be 679 nM.
